BindingDB's records for doi:10.7270/Q2W957MN (The Scripps Research Institute Molecular Screening Center, 2010)

Each molecule was assayed against T1, Trans-activator protein BZLF1 (Epstein-Barr virus (strain B95-8), UniProt P03206) (assay: inhibition of BZLF1 ZTA DNA binding – biochemical, fluorescence polarization, Epstein-Barr virus, 1536-well, counter-screen for EBNA-1 inhibitor project, dose response (AID 2377)).
T1 sequence (P03206 whole entry): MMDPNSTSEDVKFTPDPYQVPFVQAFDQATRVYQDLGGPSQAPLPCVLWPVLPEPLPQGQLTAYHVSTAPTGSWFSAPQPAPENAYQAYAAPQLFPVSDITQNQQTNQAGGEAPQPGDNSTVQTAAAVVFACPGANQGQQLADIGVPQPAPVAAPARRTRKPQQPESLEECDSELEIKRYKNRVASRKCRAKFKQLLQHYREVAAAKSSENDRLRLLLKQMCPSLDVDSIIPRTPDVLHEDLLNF

SMILES | IC50 [µM]
COc1ccc(-n2cc(O)c(-c3nc4ccccc4s3)c2N)cc1 | > 111
C=c1cc2[nH]c(=O)c(=Cc3cn(C)c4ccccc34)c(=N)n2o1 [(6Z)-7-imino-2-methyl-6-[(1-methylindol-3-yl)methylidene]-[1,2]oxazolo[2,3-a]pyrimidin-5-one] | > 111
O=[N+]([O-])c1cccc(CN=Nc2nc(NCc3ccccc3)nc(N3CCOCC3)n2)c1 [SMR000174986] | > 111
COc1cccc(-n2cc(O)c(-c3nc4ccccc4c(=O)[nH]3)c2N)c1 [MLS000075886] | > 111
O=C(Nc1nc2cc3c(cc2s1)OCCO3)c1ccc(-n2c(O)ccc2O)cc1 | 15.1
COc1cc(-c2nc3n(n2)C(c2cccc(OC)c2OC)C2C(=O)CCCC2=N3)cc(OC)c1OC (configuration not stated) | > 111
CN1C(=O)/C(=N\NC(=O)c2cc(-c3cccs3)nc3ccccc23)c2ccccc21 [SMR000242891] | > 111
